From patent publication US20200087258A1, “INHIBITOR OF CITRATE TRANSPORTER AND THEIR USE IN THERAPY” (Eternygen GmbH, priority 2017, published 2020)

Biological target: T1, GLUT1 (Homo sapiens, UniProt P11166)
T1 construct: Huh-7 cells which endogenously express GLUT1; endogenous in cells; host or cells: Huh-7
T1 sequence (P11166 1-492): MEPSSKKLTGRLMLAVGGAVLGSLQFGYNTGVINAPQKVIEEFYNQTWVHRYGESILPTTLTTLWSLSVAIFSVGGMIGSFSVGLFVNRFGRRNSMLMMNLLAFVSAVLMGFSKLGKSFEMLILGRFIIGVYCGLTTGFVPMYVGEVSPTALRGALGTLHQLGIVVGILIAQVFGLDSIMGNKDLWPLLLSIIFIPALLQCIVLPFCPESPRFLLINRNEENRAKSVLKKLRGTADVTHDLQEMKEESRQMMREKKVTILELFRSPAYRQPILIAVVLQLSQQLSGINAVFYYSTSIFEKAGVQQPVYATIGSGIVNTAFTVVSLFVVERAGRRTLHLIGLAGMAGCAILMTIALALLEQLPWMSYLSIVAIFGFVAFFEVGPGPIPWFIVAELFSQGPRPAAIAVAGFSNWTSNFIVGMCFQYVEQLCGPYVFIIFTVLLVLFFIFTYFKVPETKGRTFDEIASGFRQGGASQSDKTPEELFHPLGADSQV
Assay: 3H-glucose uptake counter assay in Huh7 cells endogenously expressing GLUT1
Assay type: cell-based
Details: endogenous GLUT1
Protocol: The compound was obtained by screening of a library containing more than 50,000 lead-like compounds and fragments. The library was tested using a functional citrate uptake assay with HEK293 cells overexpressing recombinant human INDY. The following hit confirmation was conducted in the same assay system. To confirm the activity of selected compounds on the target INDY another cell assay was conducted. In this assay system citrate uptake was measured using HepG2 cells which endogenously express INDY. Furthermore selectivity of selected compounds was tested for two other transporters in different assay systems. The first transporter was the glutamate transporter GLT-1 tested in a glutamate uptake assays using HEK293 cells overexpressing recombinant human GLT-1. The second transporter was the glucose transporter GLUT1 tested in a glucose uptake assay using Huh-7 cells which endogenously express GLUT1. Compounds were considered to be selective with an at least 5-fold higher activity for INDY than for the other two transporters.
Cells were maintained in cell medium using cell culture grade flasks (CellSTACK Corning, 500 cm2 dishes or T175 depending on cell number). The selection antibiotic and G418 (800 μg/ml) was added during cultivation but not for seeding into assay plates. For splitting, cells were washed with PBS (w/o Ca2+, Mg2+, phenol red) and detached with Trypsin/EDTA. Throughout cultivation cells were kept sub-confluent. Detached cells (50,000 cells/well) were seeded in 96-well plates (white, clear bottom from Corning #655098) and incubated over night before usage in the assay. The following media were used. For HEK293 cells expressing INDY MEM (PAA)+10% FCS+1×P/S+2 mM L-Gln; for HEK293 cells expressing GLT-1 DMEM (Gibco)+10% FCS+400 µg/ml G418; for Huh7 cells DMEM (Gibco)+10% FCS+2 mM L-Gin (+1×P/S); for HepG2 cells MEM (PAA, Cat # E15-024)+10% FCS+2 mM L-Gin+1×NEAA+1 mM Na-Pyruvat […]
Glucose uptake in Huh7 cells was measured as a counter assay. […] After 20 min incubation at RT plates were measured using TopCount system, Perkin Elmer. […]

With `O=C(NCc1ccccc1F)C1CCN(S(=O)(=O)/C=C/c2ccccc2)CC1` [Example 5] the IC50 was greater than 50 µM.
